Laboratory results from ChEMBL document CHEMBL1201862, “PubChem BioAssay data set” (2004).
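Where inhibition never reached the appropriate level, the endpoint shown equals the highest concentration tested. Otherwise, values were interpolated linearly from a five-concentration, 48-hour dose response in 96-well plates. Abbreviation: GI50, concentration required for 50% inhibition of growth.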 Activity calls are given as the source filed them. No stated cut-off is given here; in the data, active = GI50 up to about 1.1 µM and inactive = higher.

What was measured:
Experiment in all cases: DTP human tumour cell line panel, 48 h
HL-60 = tested on: HL-60
HT-29 = tested on: HT-29
HOP-62 = tested on: HOP-62
NCI-H460 = tested on: NCI-H460
SNB-75 = tested on: SNB-75
CAKI-1 = tested on: CAKI-1
HOP-92 = tested on: HOP-92
UACC-257 = tested on: UACC-257
SK-MEL-5 = tested on: SK-MEL-5
SK-MEL-2 = tested on: SK-MEL-2
SF-539 = tested on: SF-539
M14 = tested on: M14
SF-268 = tested on: SF-268
OVCAR-3 = tested on: OVCAR-3
HCC 2998 = tested on: HCC 2998
A549 = tested on: A549
NCI-H522 = tested on: NCI-H522

Measured: GI50

CCOc1ccc(NCC2CC/C(=C\c3ccc(Cl)cc3)C2=O)cc1 (stereo not given)
inactive: HL-60 1.74 µM | HT-29 > 42.1 µM | HOP-62 > 100 µM | NCI-H460 89.3 µM | SNB-75 > 44.5 µM | CAKI-1 > 45.1 µM | HOP-92 20.3 µM | UACC-257 > 38.9 µM | SK-MEL-5 23 µM | SK-MEL-2 22.4 µM | SF-539 > 41.7 µM | M14 20.4 µM | SF-268 > 55.2 µM | OVCAR-3 > 36.9 µM | HCC 2998 13 µM | A549 > 100 µM | NCI-H522 6.25 µM

O=C(CC1C(=O)c2ccccc2C1=C1C(=O)c2ccccc2C1=O)c1ccccc1 (stereo not given)
inactive: HL-60 44.6 µM | HT-29 > 100 µM | HOP-62 > 100 µM | NCI-H460 > 100 µM | SNB-75 > 100 µM | CAKI-1 > 100 µM | HOP-92 74.3 µM | UACC-257 > 100 µM | SK-MEL-5 > 100 µM | SK-MEL-2 > 100 µM | SF-539 > 100 µM | M14 > 100 µM | SF-268 > 100 µM | HCC 2998 > 100 µM | A549 > 100 µM | NCI-H522 19.9 µM

Nc1ccc(CCN2CCN(c3cccc(C(F)(F)F)c3)CC2)cc1
inactive: HL-60 9.51 µM | HT-29 70 µM | HOP-62 > 100 µM | NCI-H460 > 100 µM | SNB-75 > 100 µM | CAKI-1 > 100 µM | HOP-92 54.8 µM | UACC-257 47 µM | SK-MEL-5 55.2 µM | SF-539 > 100 µM | M14 82.6 µM | SF-268 > 100 µM | OVCAR-3 91.4 µM | HCC 2998 17.3 µM | A549 > 100 µM | NCI-H522 14.3 µM

C1=CC2SSSC2C1 (stereo not given)
inactive: HL-60 > 100 µM | HT-29 > 100 µM | HOP-62 > 100 µM | NCI-H460 > 100 µM | SNB-75 > 100 µM | HOP-92 > 100 µM | UACC-257 > 100 µM | SK-MEL-5 > 100 µM | SK-MEL-2 > 100 µM | SF-539 > 100 µM | M14 > 100 µM | SF-268 > 100 µM | OVCAR-3 > 100 µM | HCC 2998 > 100 µM | A549 > 100 µM | NCI-H522 > 100 µM
